Values after ≈ are worked out from the molar mass of the structure shown. Where two headings read alike, the source gives them in different places.
Experiments:
[1] = primary salt formation assessment: storage at 40° C./75% RH for ca. 24 h, XRPD; type: physicochemical; conditions: solids stored at 40° C./75% RH for ca. 24 h
Description: Solids were dried at 40° C. under vacuum for ca. 24 h, and then re-analysed by XRPD.
Solids were then stored at 40° C./75% RH for ca. 24 h, and then re-analysed by XRPD.

[2] = type: physicochemical
Description: Approximately 20 mg of each salt was weighed into 3×2 mL push cap vials. 0.1 mL of buffer (Chloride pH 1.2; Acetate pH 4.5; Phosphate pH 6.8) was added to each vial, at 25° C. The experiment was stirred for ca. 24 h. After 2 h, the pH was measured and adjusted if required. After 24 h a final pH measurement was taken. Any slurries were centrifuged and the solids analysed by XRPD.

[3] = primary salt formation assessment: solution degradation (HPLC of mother liquor); type: physicochemical; conditions: salt formation experiment
Description: HPLC analysis was carried out to determine the chemical purity of the mesembrine and to provide information on any impurities. The following conditions were use: • Column: Waters Acquity BEH 018 1.7 μm 150 mm×2.1 mm • Column Temperature: 33° C. • Autosampler Temperature: 25° C. • UV Wavelength: 280 nm • Injection Volume: 5 μL • Flow Rate: 0.29 mL/min • Mobile Phase A: 0.1% NH4 in H2O • Mobile Phase B: Methanol:Water 20:80% v/v • Gradient Program: […]
The experiments were then temperature cycled between the upper temperature limit (specified in Table 3.1) and 5° C. at 0.1° C./min, with 1 h holds at the upper temperature limit, and 5° C. for ca. 72 h.
After temperature cycling, solids were isolated from experiments at 5° C., and analysed by XRPD.

[4] = DVS analysis (water uptake); type: physicochemical; conditions: 80% RH, 25° C.; listed as fumarate salt Pattern 4
1-week stability study = type: physicochemical; conditions: for Observation: Sigma Aldrich colour chart
Description: A 1-week stability study was performed for hydrochloride salt Pattern 1, besylate salt Pattern 1, fumarate salt Pattern 1+4, and fumarate salt Pattern 4.
Approximately 5 mg of the salt was weighed into 3×2 mL push cap vials. The 2 mL vials were then each placed inside a 20 mL vial, with the lids on or off as required. The solids were placed under the required stability conditions for 1 week at the following three conditions: 40° C./75% RH (open); 80° C. (closed); Ambient light, temperature and humidity (open)
After 1-week, visual observations were noted, then the solids were analysed by XRPD and HPLC.

[5] = solubility screen of amorphous besylate salt; type: physicochemical
Description: The amorphous besylate salt prepared in Example 8 was used in a solubility screen as follows:
Known volume aliquots of solvent system were added to each vial, with heating at 40° C. between each addition for ca. 5 minutes. Addition of solvents was continued until either dissolution was observed, or until 100 volumes (ca. 1 mL) had been added.
After the solvent addition was complete, the experiments were stirred at 40° C. for ca. 16 h. […] The solids were isolated by centrifuge filtration and were analysed by XRPD.
Any solids isolated were analysed by XRPD.

[6] = blood:plasma and blood:brain ratios in satellite animals; type: in vivo, male C57Bl/6J mice; conditions: satellite mice, 10 mg/kg i.p., t=0.25 h
Description: Groups of 18 male C57Bl/6J mice (weighing between 20 and 30 g) received a single administration of test compound (10 mg/kg; i.p.) in methylcellulose (0.5% w/v) at a nominal concentration of […].

[7] = male C57Bl/6J mice, 10 mg/kg i.p.
[8] = solvent miscibility/solubility of mesembrine (Example 2); type: physicochemical
Description: After dissolution 278 μL of the solution was aliquoted into pre-tared vials, and the solvent allowed to evaporate at ambient conditions for 1 h. The vials were then dried at 20° C. under vacuum for ca. 22 h. After drying, the vials were back-weighed to determine the mass of mesembrine in each vial.
The miscibility study was carried out by adding aliquots of the desired solvent system to each vial. The following aliquot sizes were used: Aliquot numbers 1-10-20 μL; 11-16-50 μL; 17-19-200 μL; 20-750 μL.
In between additions the experiment was heated to 40° C. for ca. 5 minutes to facilitate miscibility/solubility. Additions were continued until miscibility was observed, or ca. 100 volumes (2 mL) had been added.

[9] = cited from earlier work
[10] = Ambient light, temperature and humidity, 1 week

COc1ccc(C23CCC(=O)CC2N(C)CC3)cc1OC.O=C(O)/C=C/C(=O)O (stereo not shown) [Fumarate Pattern 1, mesembrine fumarate]
physical stability at 40° C./75% RH (Comments) [1]: Physically stable | HPLC Conc. ([2]; Target pH 1.2 (chloride buffer), 25° C., 24 h, with respect to mesembrine): 29.44 mg/mL | Observation ([2]; Target pH 6.8, ca. 20 mg in 0.1 mL buffer): Oiling

COc1ccc(C23CCC(=O)CC2N(C)CC3)cc1OC.O=C(O)/C=C/C(=O)O (stereo not shown) [Fumarate Pattern 2, mesembrine fumarate]
solution degradation (Comments) [3]: degradation

COc1ccc(C23CCC(=O)CC2N(C)CC3)cc1OC.O=C(O)C=CC(=O)O (stereo not shown) [Fumarate Pattern 4, mesembrine fumarate]
DVS water uptake [4]: 0.5 wt % | HPLC (1-week stability study; 40° C./75% RH (open), 1 week): 96.4 % area | XRPD (pattern number) (1-week stability study; 40° C./75% RH (open), 1 week): 4, | Observation (1-week stability study; 40° C./75% RH (open), 1 week): Faint beige solids (BE10) | HPLC (1-week stability study; 80° C. (closed), 1 week): 96.4 % area | XRPD (pattern number) (1-week stability study; 80° C. (closed), 1 week): 4, | Observation (1-week stability study; 80° C. (closed), 1 week): Faint beige solids (BE10) | HPLC (1-week stability study; [10]): 96.4 % area | XRPD (pattern number) (1-week stability study; [10]): 4, | Observation (1-week stability study; [10]): Faint beige solids (BE10) | HPLC (1-week stability study; Input): 95.9 % area | XRPD (pattern number) (1-week stability study; Input): 4,

COc1ccc(C23CCC(=O)CC2N(C)CC3)cc1OC.O=P(O)(O)O (stereo not shown) [Phosphate Pattern 1, mesembrine phosphate]
solution degradation (Comments) [3]: degradation

COc1ccc(C23CCC(=O)CC2N(C)CC3)cc1OC.O=C(O)CCC(=O)O (stereo not shown) [Succinate Pattern 1, mesembrine succinate]
solution degradation (Comments) [3]: degradation

COc1ccc(C23CCC(=O)CC2N(C)CC3)cc1OC.O=C(O)C(O)C(O)C(=O)O (stereo not shown) [Tartrate Pattern 1, mesembrine tartrate]
physical stability at 40° C./75% RH (Comments) [1]: Deliquescence | solution degradation (Comments) [3]: degradation

COc1ccc(C23CCC(=O)CC2N(C)CC3)cc1OC.O=S(=O)(O)c1ccccc1 (stereo not shown) [amorphous besylate salt, mesembrine besylate]
Solubility ([5]; 1,4-Dioxane): <10000 µg/mL | Solubility ([5]; 1-Butanol): <10000 µg/mL | Solubility ([5]; 1-Propanol): ca.31 mg/mL | Solubility ([5]; 2-Ethoxyethanol): ca.44 mg/mL | Solubility ([5]; 2-Methyl THF): <10000 µg/mL | Solubility ([5]; 2-Propanol): <10000 µg/mL | Solubility ([5]; 2-Propanol:Water (50:50)): >500000 µg/mL | Solubility ([5]; 2-Propanol:Water (75:25)): ca.167 mg/mL | Solubility ([5]; Acetone): <10000 µg/mL | Solubility ([5]; Acetone:Water (90:10)): >500000 µg/mL | Solubility ([5]; Acetonitrile): >500000 µg/mL | Solubility ([5]; Anisole): <10000 µg/mL | Solubility ([5]; Butyl Acetate): <10000 µg/mL | Solubility ([5]; Dichloromethane (DCM)): ca.250 mg/mL | Solubility ([5]; Diisopropyl ether): <10000 µg/mL | Solubility ([5]; Dimethylsulfoxide (DMSO)): >500000 µg/mL | Solubility ([5]; Ethanol): ca.44 mg/mL | Solubility ([5]; Ethanol:Water (50:50)): >500000 µg/mL | Solubility ([5]; Ethanol:Water (90:10)): >500000 µg/mL | Solubility ([5]; Ethyl acetate): <10000 µg/mL | Solubility ([5]; Heptane): <10000 µg/mL | Solubility ([5]; Isopropyl acetate): <10000 µg/mL | Solubility ([5]; Methanol): >500000 µg/mL | Solubility ([5]; Methylethyl Ketone (MEK)): <10000 µg/mL | Solubility ([5]; Methylisobutyl Ketone (MiBK)): <10000 µg/mL | Solubility ([5]; N,N-Dimethylacetamide (DMA)): >500000 µg/mL | Solubility ([5]; N,N-Dimethylformamide (DMF)): ca.250 mg/mL | Solubility ([5]; N-Methylpyrrolidone (NMP)): >500000 µg/mL | Solubility ([5]; Tetrahydrofuran (THF)): <10000 µg/mL | Solubility ([5]; Toluene): <10000 µg/mL | Solubility ([5]; Water): >500000 µg/mL | Solubility ([5]; tert-Butylmethyl Ether (tBME)): <10000 µg/mL | Brain concentration [6]: 814 ng/g | Plasma concentration [6]: 417 ng/mL | AUC greater than that produced by the mesembrine free base [7]: over 100 ng·hr/mL | difference in half-life versus the free base [7]: ~10 min | AUC0-inf ([7]; plasma): 392 ng·h/mL | Cmax ([7]; plasma): 451 ng/mL | Tmax ([7]; plasma): 15 min | half-life ([7]; plasma): 36.9 min

COc1ccc(C23CCC(=O)CC2N(C)CC3)cc1OC (stereo not shown) [mesembrine, 3a-(3,4-dimethoxyphenyl)-octahydro-1-methy-6H-indol-6-one]
Miscibility ([8]; 1,4-Dioxane): >850 mg/mL | Miscibility ([8]; 2-Methyl THF): >845 mg/mL | Miscibility ([8]; 2-Propanol (IPA)): >870 mg/mL | Miscibility ([8]; 2-Propanol:Water (50:50)): >870 mg/mL | Miscibility ([8]; Acetone): >890 mg/mL | Miscibility ([8]; Acetonitrile): >855 mg/mL | Miscibility ([8]; DMSO): >288 mg/mL | Miscibility ([8]; Ethanol): >630 mg/mL | Miscibility ([8]; Ethyl acetate): >445 mg/mL | Miscibility ([8]; Heptane): <9 mg/mL | Miscibility ([8]; Isopropyl acetate): >900 mg/mL | Miscibility ([8]; Methanol): >455 mg/mL | Miscibility ([8]; Methylethyl Ketone (MEK)): >915 mg/mL | Miscibility ([8]; N-Methyl-2-pyrrolidone (NMP)): >450 mg/mL | Miscibility ([8]; Tert-butyl methyl ether): >465 mg/mL | Miscibility ([8]; Tetrahydrofuran (THF)): >381 mg/mL | Miscibility ([8]; Toluene): >455 mg/mL | Miscibility ([8]; Water): <9 mg/mL | Brain concentration [6]: 1292 ng/g | Plasma concentration [6]: 317 ng/mL | Solubility ([9]; Ethanol): 10000 µg/mL (≈ 34.6 mM) | Solubility ([9]; Water): low solubility | Solubility ([9]; chloroform): 10000 µg/mL (≈ 34.6 mM) | AUC0-inf ([7]; plasma): 290 ng·h/mL | Cmax ([7]; plasma): 400 ng/mL | Tmax ([7]; plasma): 15 min | half-life ([7]; plasma): 27.2 min | t1/2 ([7]; plasma): 27.2 min

Reference: patent US12595231B2 (priority 2022, dated 2026)
